Assay results taken from PubChem BioAssay AID2060889 (Molecular Pharmacology Branch, DTP, NCI, 2025).

Tested on: LG0567-F671-PDC complex spheroids viability
Experiment: Anticancer human tumor LG0567-F671-PDC patient-derived lung adenocarcinoma cell line growth inhibition [RAS]
Settings: for IC50: curve of first compound; for viability, T/C: stronger effect = lower value
Procedure, shortened: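 Multi-cell-type spheroids: tumor cells plus HUVEC endothelial cells and mesenchymal stem cells. RAS-pathway inhibitors were combined with targeted agents, each dosed in half-log steps down from clinical Cmax, or from 10 microM when Cmax was unknown.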
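Further: spheroids exposed to compound for seven days before readout.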
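Wherever IC50 is given: luminescence signal used as a proxy for viable cells.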

For Nc1ccn(C2OC(CO)C(O)C2(F)F)c(=O)n1 (configuration not stated) + C#Cc1c(F)ccc2cc(O)cc(-c3ncc4c(N5CC6CCC(C5)N6)nc(OCC56CCCN5CC(F)C6)nc4c3F)c12, the IC50 (second compound 0.0316 µM) was over 1000 nM, the IC50 (second compound 0.1 µM) was over 1000 nM and the IC50 (second compound 0.316 µM) was under 3.16 nM. The IC50 (second compound 1 µM) was under 3.16 nM, the IC50 (second compound 3.16 µM) was under 3.16 nM and the IC50 (second compound 10 µM) was under 3.16 nM. For the same compound, the viability, T/C (second compound 0.0316 µM, first compound 0.00316 µM) was 76.6%, the viability, T/C (second compound 0.0316 µM, first compound 0.01 µM) was 74.5% and the viability, T/C (second compound 0.0316 µM, first compound 0.0316 µM) was 60.8%. The viability, T/C (second compound 0.0316 µM, first compound 0.1 µM) was 59.8%, the viability, T/C (second compound 0.0316 µM, first compound 0.316 µM) was 63.2% and the viability, T/C (second compound 0.0316 µM, first compound 1 µM) was 59.5%. It also gave a viability, T/C (second compound 0.1 µM, first compound 0.00316 µM) of 70.4%, a viability, T/C (second compound 0.1 µM, first compound 0.01 µM) of 71.7% and a viability, T/C (second compound 0.1 µM, first compound 0.0316 µM) of 52.1%. It also gave a viability, T/C (second compound 0.1 µM, first compound 0.1 µM) of 61.5%, a viability, T/C (second compound 0.1 µM, first compound 0.316 µM) of 59.8% and a viability, T/C (second compound 0.1 µM, first compound 1 µM) of 59.2%. It also gave a viability, T/C (second compound 0.316 µM, first compound 0.00316 µM) of 46.8%, a viability, T/C (second compound 0.316 µM, first compound 0.01 µM) of 46.7% and a viability, T/C (second compound 0.316 µM, first compound 0.0316 µM) of 47.6%. The viability, T/C (second compound 0.316 µM, first compound 0.1 µM) was 46.5%, the viability, T/C (second compound 0.316 µM, first compound 0.316 µM) was 49.4% and the viability, T/C (second compound 0.316 µM, first compound 1 µM) was 44.8%. It also gave a viability, T/C (second compound 1 µM, first compound 0.00316 µM) of 26.7%, a viability, T/C (second compound 1 µM, first compound 0.01 µM) of 27.3% and a viability, T/C (second compound 1 µM, first compound 0.0316 µM) of 25.5%. The viability, T/C (second compound 1 µM, first compound 0.1 µM) was 26.9%, the viability, T/C (second compound 1 µM, first compound 0.316 µM) was 27.9% and the viability, T/C (second compound 1 µM, first compound 1 µM) was 27.5%. It also gave a viability, T/C (second compound 3.16 µM, first compound 0.00316 µM) of 16.1%, a viability, T/C (second compound 3.16 µM, first compound 0.01 µM) of 16.4% and a viability, T/C (second compound 3.16 µM, first compound 0.0316 µM) of 16.8%. It also gave a viability, T/C (second compound 3.16 µM, first compound 0.1 µM) of 16%, a viability, T/C (second compound 3.16 µM, first compound 0.316 µM) of 16.4% and a viability, T/C (second compound 3.16 µM, first compound 1 µM) of 14.8%. It also gave a viability, T/C (second compound 10 µM, first compound 0.00316 µM) of 8.86%, a viability, T/C (second compound 10 µM, first compound 0.01 µM) of 9.45% and a viability, T/C (second compound 10 µM, first compound 0.0316 µM) of 9%. The viability, T/C (second compound 10 µM, first compound 0.1 µM) was 8.04%, the viability, T/C (second compound 10 µM, first compound 0.316 µM) was 8.48% and the viability, T/C (second compound 10 µM, first compound 1 µM) was 9.14%.
